Experimental findings from patent publication US12331041B2, “GLP-1 receptor agonists and uses thereof” (Pfizer Inc., priority 2018, dated 2025) are described below.

Test [1] deals with T1, human GLP-1R (Homo sapiens, UniProt P43220, G168S).
T1 construct: expressed in transfected cells
Briefly: CHO GLP-1R Clone H6 - Assay 1 (HTRF cAMP agonist assay). The test is classed as cell-based. The settings on record: for EC50: CHO Clone H6, high GLP-1R density, cAMP, geometric mean. As to the method: GLP-1R-mediated agonist activity was determined with a cell-based functional assay utilizing an HTRF (Homogeneous Time-Resolved Fluorescence) cAMP detection kit (cAMP HI Range Assay Kit; CisBio cat #62AM6PEJ) that measures cAMP levels in the cell. The method is a competitive immunoassay between native cAMP produced by the cells and exogenous cAMP labeled with the dye d2, The tracer binding is visualized by a mAb anti-cAMP labeled with Cryptate. The specific signal (i.e. energy transfer) is inversely proportional to the concentration of cAMP in either standard or experimental sample.
The human GLP-1R coding sequence (NCBI Reference Sequence NP_002053.3, including naturally-occurring variant Gly168Ser) was subcloned into pcDNA3 (Invitrogen) and a cell line stably expressing the receptor was isolated (designated Clone H6).
A 1 mL sample of the cell suspension in growth media was counted on a Becton Dickinson ViCell to determine cell viability and cell count per mL. The remaining cell suspension was then adjusted with growth media to deliver 2000 viable cells per well using a Matrix Combi Multidrop reagent dispenser, and the cells were dispensed into a white 384 well tissue culture treated assay plate (Corning 3570). The assay plate was then incubated for 48 hours at 37° C. in a humidified environment in 5% carbon dioxide.
Varying concentrations of each compound to be tested (in DMSO) were diluted in assay buffer (HBSS with Calcium/Magnesium (Lonza/BioWhittaker cat #10-527F)/0.1% BSA (Sigma Aldrich cat #A7409-1L)/20 mM HEPES (Lonza/BioWhittaker cat #17-737E) containing 100 μM 3-isobutyl-1-methylxanthin (IBMX; Sigma cat #15879). The final DMSO concentration is 1%.
After 48 hours, the growth media was removed from the assay plate wells, and the cells were treated with 20 μL of the serially diluted compound in assay buffer for 30 minutes at 37° C. in a humidified environment in 5% carbon dioxide. Following the 30 minute incubation, 10 μL of labeled d2 cAMP and 10 μL of anti-cAMP antibody (both diluted 1:20 in cell lysis buffer; as described in the manufacturer's assay protocol) were added to each well of the assay plate. The plates were then incubated at room temperature and after 60 minutes, changes in the HTRF signal were read with an Envision 2104 multi-label plate reader using excitation of 330 nm and emissions of 615 and 665 nm. Raw data were converted to nM cAMP by interpolation from a cAMP standard curve (as described in the manufacturer's assay protocol) and the percent effect was determined relative to a saturating concentration of the full agonist GLP-17-36 (1 μM) included on each plate. EC50 determinations were made from agonist dose-response curves analyzed with a curve fitting program using a 4-parameter logistic dose response equation.

For test [2], the target named is T2, human GLP-1R (Homo sapiens, UniProt P43220, L260F).
T2 construct: expressed in transfected cells; host or cells: CHO Flp-In T-REx, clonal line C6 (pcDNA5-FRT-TO)
T2 sequence (P43220 24-463 L260F): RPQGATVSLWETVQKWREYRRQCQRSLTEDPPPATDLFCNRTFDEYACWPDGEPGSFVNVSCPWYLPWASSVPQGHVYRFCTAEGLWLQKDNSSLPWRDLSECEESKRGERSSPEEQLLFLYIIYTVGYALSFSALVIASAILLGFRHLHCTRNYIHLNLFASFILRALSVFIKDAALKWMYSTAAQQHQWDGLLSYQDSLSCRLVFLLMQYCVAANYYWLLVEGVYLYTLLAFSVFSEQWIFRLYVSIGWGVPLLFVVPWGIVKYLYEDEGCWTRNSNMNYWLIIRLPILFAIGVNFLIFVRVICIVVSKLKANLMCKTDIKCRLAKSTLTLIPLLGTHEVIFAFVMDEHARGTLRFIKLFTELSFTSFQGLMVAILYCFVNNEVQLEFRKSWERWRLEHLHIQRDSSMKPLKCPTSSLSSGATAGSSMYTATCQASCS
The test can be described thus: CHO GLP-1R Clone C6 - Assay 2 (HTRF cAMP agonist assay). The settings on record: for EC50: CHO clone C6, low GLP-1R density, cAMP, geometric mean. The test is classed as cell-based. As to the method:
GLP-1R-mediated agonist activity was determined with a cell-based functional assay utilizing an HTRF (Homogeneous Time-Resolved Fluorescence) cAMP detection kit (cAMP HI Range Assay Kit; Cis Bio cat #62AM6PEJ) that measures cAMP levels in the cell. The method is a competitive immunoassay between native cAMP produced by the cells and exogenous cAMP labeled with the dye d2. The tracer binding is visualized by a mAb anti-cAMP labeled with Cryptate. The specific signal (i.e. energy transfer) is inversely proportional to the concentration of cAMP in either a standard or an experimental sample.
The human GLP-1R coding sequence (NCBI Reference Sequence NP_002053.3, including naturally-occurring variant Leu260Phe) was subcloned into pcDNA5-FRT-TO and a clonal CHO cell line stably expressing a low receptor density was isolated using the Flp-In™ T-Rex™ System, as described by the manufacturer (ThermoFisher).
A 1 mL sample of the cell suspension in growth media was counted on a Becton Dickinson ViCell to determine cell viability and cell count per mL. The remaining cell suspension was then adjusted with growth media to deliver 1600 viable cells per well using a Matrix Combi Multidrop reagent dispenser, and the cells were dispensed into a white 384 well tissue culture treated assay plate (Corning 3570). The assay plate was then incubated for 48 h at 37° C. in a humidified environment (95% O2, 5% CO2)
Varying concentrations of each compound to be tested (in DMSO) were diluted in assay buffer [HBSS with Calcium/Magnesium (Lonza/BioWhittaker cat #10-527F)/0.1% BSA (Sigma Aldrich cat #A7409-1L)/20 mM HEPES (Lonza/BioWhittaker cat #17-737E)] containing 100 μM 3-isobutyl-1-methylxanthin (IBMX; Sigma cat #15879). The final DMSO concentration in the compound/assay buffer mixture is 1%.
After 48 h, the growth media was removed from the assay plate wells, and the cells were treated with 20 μL of the serially diluted compound in assay buffer for 30 min at 37° C. in a humidified environment (95% O2, 5% CO2). Following the 30 min incubation, 10 μL of labeled d2 cAMP and 10 μL of anti-cAMP antibody (both diluted 1:20 in cell lysis buffer; as described in the manufacturer's assay protocol) were added to each well of the assay plate. The plates were then incubated at room temperature and after 60 minutes, changes in the HTRF signal were read with an Envision 2104 multi-label plate reader using excitation of 330 nm and emissions of 615 and 665 nm. Raw data were converted to nM cAMP by interpolation from a cAMP standard curve (as described in the manufacturer's assay protocol) and the percent effect was determined relative to a saturating concentration of the full agonist GLP-1 (1 μM) included on each plate. EC50 determinations were made from agonist dose response curves analyzed with a curve fitting program using a 4-parameter logistic dose response equation.
A general note: TR-FRET usually uses a lanthanide donor and a delayed reading to cut background.

[3] abbreviates: CHO Clone H6, relative to saturating full agonist GLP-1 7-36 (1 μM), arithmetic mean.
The mark [4] stands for this setting: CHO clone C6, relative to saturating full agonist GLP-1 (1 μM), arithmetic mean.

Counter-ions that a name gives are not always drawn.

T1 sequence (P43220 24-463 G168S): as the sequence (P43220 24-463 L260F) above, with G145S, F237L counted along it

Take `CCn1cncc1Cn1c(CN2CCC(c3nccnc3OCc3ccc(C#N)cc3F)CC2)nc2ccc(C(=O)O)cc21` [Example 27, 2-[(4-{3-[(4-cyano-2-fluorobenzyl)oxy]pyrazin-2-yl}piperidin-l-yl)methyl]-1-[(1-ethyl-1H-imidazol-5-yl)methyl]-1H-benzimidazole-6-carboxylic acid, trifluoroacetate salt]: the EC50 (in general, the concentration giving half of the maximal effect) at human GLP-1R [1] was found to be 0.84 nM; at human GLP-1R [2], 16 nM. In addition, the Emax (in general, the greatest response seen or fitted, relative to the assay's reference) at human GLP-1R [1] (setting [3]) is 86%; at human GLP-1R [2] (setting [4]) it was 85%.

Take `C[C@H]1CN(c2ccnc(OCc3ccc(Cl)cc3F)n2)CCN1Cc1nc2ccc(C(=O)O)nc2n1C[C@@H]1CCO1` [Example 77, 2-{[(2S)-4-{2-[(4-chloro-2-fluorobenzyl)oxy]pyrimidin-4-yl}-2-methylpiperazin-1-yl]methyl}-3-[(2S)-oxetan-2-ylmethyl]-3H-imidazo[4,5-b]pyridine-5-carboxylic acid]: the concentration for a half-maximal effect (EC50) on human GLP-1R [1] came to 4.4 nM; at human GLP-1R [2] it was 110 nM. Besides, the Emax on human GLP-1R [1] (setting [3]) amounted to 100%; on human GLP-1R [2] (setting [4]) it was 110%.

In the case of `N#Cc1ccc(COc2cccc(N3CCC4(CC3)CC4c3nc4ccc(C(=O)O)cc4n3CC3CCO3)n2)c(F)c1` (single isomer, unassigned) [Example 36], the EC50 at human GLP-1R [1] was 0.48 nM; on human GLP-1R [2], 15 nM. Further, the “Assay 1 Emax (%)” value on human GLP-1R [1] (setting [3]) came out at 83%. Moreover, the “Assay 2 Emax (%)” value at human GLP-1R [2] (setting [4]) is 90%.

Consider `O=C(O)c1ccc2nc(CN3CCC(c4nccnc4OCc4ccc(Cl)cc4F)CC3)n(Cc3ncco3)c2c1` [Example 22, 2-[(4-{3-[(4-chloro-2-fluorobenzyl)oxy]pyrazin-2-yl}piperidin-1-yl)methyl]-1-(1,3-oxazol-2-ylmethyl)-1H-benzimidazole-6-carboxylic acid, trifluoroacetate salt], for which the EC50 on human GLP-1R [1] stood at 2.8 nM; at human GLP-1R [2], 23 nM. Besides, the Emax at human GLP-1R [1] (setting [3]) worked out at 85%; at human GLP-1R [2] (setting [4]), 82%.

On to `O=C(O)c1ccc2nc(CN3CCC(c4nccnc4OCc4ccc(Cl)cc4F)CC3)n(Cc3cnco3)c2c1` [Example 24, 2-[(4-{3-[(4-chloro-2-fluorobenzyl)oxy]pyrazin-2-yl}piperidin-1-yl)methyl]-1-(1,3-oxazol-5-ylmethyl)-1H-benzimidazole-6-carboxylic acid, trifluoroacetate salt], for which the figures for the EC50 on human GLP-1R [1] and at human GLP-1R [2] were 2 nM and 33 nM, respectively. The values for the Emax on human GLP-1R [1] (setting [3]) and at human GLP-1R [2] (setting [4]) were 76% and 89%, respectively.

Regarding `O=C(O)c1ccc2nc(CC3CCC(c4cccc(OCc5ccc(Cl)cc5F)n4)CC3)n(C[C@@H]3CCO3)c2c1` (single isomer, unassigned; isomer 2) [Example 80], the EC50 was determined as 12 nM on human GLP-1R [1] and 160 nM on human GLP-1R [2]. The Emax at human GLP-1R [1] (setting [3]) was 98%; at human GLP-1R [2] (setting [4]), 100%.

In the case of `N#Cc1ccc(COc2ncccc2C2CCN(Cc3nc4ccc(C(=O)O)cc4n3Cc3ncco3)CC2)c(F)c1` [Example 4, 2-[(4-{2-[(4-cyano-2-fluorobenzyl)oxy]pyridin-3-yl}piperidin-1-yl)methyl]-1-(1,3-oxazol-2-ylmethyl)-1H-benzimidazole-6-carboxylic acid, trifluoroacetate salt], the EC50 is 3 nM at human GLP-1R [1] and 40 nM at human GLP-1R [2]. In addition, the Emax on human GLP-1R [1] (setting [3]) worked out at 77%; at human GLP-1R [2] (setting [4]), 98%.

Regarding `N#Cc1ccc(COc2ccc(F)c(N3CCC4(CC3)CC4c3nc4ccc(C(=O)O)cc4n3CC3CCO3)n2)c(F)c1` (single isomer, unassigned) [Example 54], the EC50 on human GLP-1R [1] is 63 nM; at human GLP-1R [2], 3400 nM. Moreover, the figures for the Emax on human GLP-1R [1] (setting [3]) and on human GLP-1R [2] (setting [4]) were 76% and 93%, respectively.

With `N#Cc1ccc(COc2nc(N3CCC4(CC3)CC4c3nc4ccc(C(=O)O)cc4n3CC3CCO3)ccc2F)c(F)c1` (single isomer, unassigned; ent-1) [Example 52], the results for the EC50 on human GLP-1R [1] and on human GLP-1R [2] were 100 nM and 6400 nM, respectively. Further, the Emax at human GLP-1R [1] (setting [3]) worked out at 74%; on human GLP-1R [2] (setting [4]), 100%.

Consider `COCCn1c(CN2CCC(c3ccnc(OCc4ccc(Cl)cc4F)n3)CC2)nc2ccc(C(=O)O)cc21` [Example 65, 2-[(4-{2-[(4-chloro-2-fluorobenzyl)oxy]pyrimidin-4-yl}piperidin-1-yl)methyl]-1-(2-methoxyethyl)-1H-benzimidazole-6-carboxylic acid, hydrochloride salt], for which the EC50 was 88 nM at human GLP-1R [1] and 1700 nM on human GLP-1R [2]. Moreover, the Emax at human GLP-1R [1] (setting [3]) stood at 85%; on human GLP-1R [2] (setting [4]), 110%.

Regarding `O=C(O)c1ccc2nc(CN3CCC(c4cccnc4OCc4ccc(Cl)cc4F)CC3)n(C[C@H]3CCOC3)c2c1` [Example 8, 2-[(4-{2-[(4-chloro-2-fluorobenzyl)oxy]pyridin-3-yl}piperidin-1-yl)methyl]-1-[(3R)-tetrahydrofuran-3-ylmethyl]-1H-benzimidazole-6-carboxylic acid, trifluoroacetate salt], the EC50 at human GLP-1R [1] amounted to 6 nM; on human GLP-1R [2], 230 nM. For the same compound, the Emax at human GLP-1R [1] (setting [3]) came out at 72%; on human GLP-1R [2] (setting [4]), 76%.

As for `N#Cc1ccc(COc2nccnc2C2CCN(Cc3nc4ccc(C(=O)O)cc4n3Cc3ncco3)CC2)c(F)c1` [Example 25, 2-[(4-{3-[(4-cyano-2-fluorobenzyl)oxy]pyrazin-2-yl}piperidin-1-yl)methyl]-1-(1,3-oxazol-2-ylmethyl)-1H-benzimidazole-6-carboxylic acid, trifluoroacetate salt], the figures for the EC50 on human GLP-1R [1] and on human GLP-1R [2] were 6.3 nM and 73 nM, respectively. For the same compound, the Emax worked out at 80% on human GLP-1R [1] (setting [3]) and 91% on human GLP-1R [2] (setting [4]).

As to `C[C@@H]1CN(c2ccnc(OCc3ccc(Cl)cc3F)n2)CCN1Cc1nc2ccc(C(=O)O)cc2n1C[C@@H]1CCO1` [Example 75, ammonium 2-{[(2R)-4-{2-[(4-chloro-2-fluorobenzyl)oxy]pyrimidin-4-yl}-2-methylpiperazin-1-yl]methyl}-1-[(2S)-oxetan-2-ylmethyl]-1H-benzimidazole-6-carboxylate], the EC50 turned out to be 21 nM at human GLP-1R [1] and 370 nM at human GLP-1R [2]. Moreover, the figures for the Emax on human GLP-1R [1] (setting [3]) and on human GLP-1R [2] (setting [4]) were 88% and 100%, respectively.
